Experimental data reported in PubChem BioAssay (NCI).
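Test compounds were applied to cells in 96-well plates for 48 hours at 5 doses. Abbreviation: GI50, concentration required for 50% inhibition of growth. TGI denotes the concentration required for complete inhibition of growth.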

Assays:
Assay in all cases: NCI tumour cell line growth inhibition, 48 h
M14 melanoma = system: M14 melanoma
UO-31 renal = system: UO-31 renal
MCF7 breast = system: MCF7 breast
HOP-62 NSCLC = system: HOP-62 NSCLC
NCI/ADR-RES ovarian = system: NCI/ADR-RES ovarian
CCRF-CEM leukemia = system: CCRF-CEM leukemia
SK-OV-3 ovarian = system: SK-OV-3 ovarian
SNB-75 CNS = system: SNB-75 CNS
COLO 205 colon = system: COLO 205 colon
U251 CNS = system: U251 CNS
SW-620 colon = system: SW-620 colon
IGROV1 ovarian = system: IGROV1 ovarian
HS 578T breast = system: HS 578T breast
SR leukemia = system: SR leukemia
A498 renal = system: A498 renal
OVCAR-5 ovarian = system: OVCAR-5 ovarian
A549 NSCLC = system: A549 NSCLC
786-0 renal = system: 786-0 renal
RPMI-8226 leukemia = system: RPMI-8226 leukemia
SNB-19 CNS = system: SNB-19 CNS
HCT-116 colon = system: HCT-116 colon
SK-MEL-2 melanoma = system: SK-MEL-2 melanoma
MDA-MB-231 breast = system: MDA-MB-231 breast
SF-539 CNS = system: SF-539 CNS
MOLT-4 leukemia = system: MOLT-4 leukemia
ACHN renal = system: ACHN renal
OVCAR-4 ovarian = system: OVCAR-4 ovarian
PC-3 prostate = system: PC-3 prostate
SF-295 CNS = system: SF-295 CNS
K-562 leukemia = system: K-562 leukemia
NCI-H23 lung = system: NCI-H23 lung
SF-268 CNS = system: SF-268 CNS
OVCAR-3 ovarian = system: OVCAR-3 ovarian
RXF 393 renal = system: RXF 393 renal
MDA-MB-435 = system: MDA-MB-435
NCI-H226 lung = system: NCI-H226 lung
UACC-62 melanoma = system: UACC-62 melanoma
NCI-H522 lung = system: NCI-H522 lung
HOP-92 NSCLC = system: HOP-92 NSCLC
HT29 colon = system: HT29 colon
HCC-2998 colon = system: HCC-2998 colon
SN12C renal = system: SN12C renal
SK-MEL-28 melanoma = system: SK-MEL-28 melanoma
KM12 colon = system: KM12 colon
MALME-3M melanoma = system: MALME-3M melanoma
HL-60(TB) leukemia = system: HL-60(TB) leukemia
SK-MEL-5 melanoma = system: SK-MEL-5 melanoma
UACC-257 melanoma = system: UACC-257 melanoma
HCT-15 colon = system: HCT-15 colon
NCI-H460 lung = system: NCI-H460 lung
TK-10 renal = system: TK-10 renal
BT-549 breast = system: BT-549 breast
LOX IMVI melanoma = system: LOX IMVI melanoma
EKVX NSCLC = system: EKVX NSCLC
OVCAR-8 ovarian = system: OVCAR-8 ovarian
DU-145 prostate = system: DU-145 prostate
CAKI-1 renal = system: CAKI-1 renal
T-47D breast = system: T-47D breast

**Q.** How did the GI50 (M14 melanoma) turn out when `O=C(N/N=C/c1ccc(Cl)s1)c1[nH]c2ccc(Br)cc2c1-c1ccccc1` was run?
**A.** 0.318 µM

**Q.** And the TGI (M14 melanoma)?
**A.** > 100 µM

**Q.** What about the GI50 (UO-31 renal) of the same compound?
**A.** 0.52 µM

**Q.** And the TGI (UO-31 renal)?
**A.** > 100 µM

**Q.** What about the GI50 (MCF7 breast) of the same compound?
**A.** 0.266 µM

**Q.** And the TGI (MCF7 breast)?
**A.** 4.21 µM

**Q.** What about the GI50 (HOP-62 NSCLC) of the same compound?
**A.** 0.766 µM

**Q.** What about the TGI (HOP-62 NSCLC) of the same compound?
**A.** 41.6 µM

**Q.** What about the GI50 (NCI/ADR-RES ovarian) of the same compound?
**A.** 0.144 µM

**Q.** What about the GI50 (CCRF-CEM leukemia) of the same compound?
**A.** 0.354 µM

**Q.** What about the TGI (CCRF-CEM leukemia) of the same compound?
**A.** > 86.4 µM

**Q.** What about the GI50 (SK-OV-3 ovarian) of the same compound?
**A.** 0.409 µM

**Q.** And the TGI (SK-OV-3 ovarian)?
**A.** 91.2 µM

**Q.** And the GI50 (SNB-75 CNS)?
**A.** 0.259 µM

**Q.** And the TGI (SNB-75 CNS)?
**A.** 3.45 µM

**Q.** And the GI50 (COLO 205 colon)?
**A.** 0.488 µM

**Q.** And the TGI (COLO 205 colon)?
**A.** 1.68 µM

**Q.** What about the GI50 (U251 CNS) of the same compound?
**A.** 0.322 µM

**Q.** What about the TGI (U251 CNS) of the same compound?
**A.** 18.2 µM

**Q.** What about the GI50 (SW-620 colon) of the same compound?
**A.** 0.375 µM

**Q.** And the TGI (SW-620 colon)?
**A.** > 100 µM

**Q.** What about the GI50 (IGROV1 ovarian) of the same compound?
**A.** 0.386 µM

**Q.** What about the TGI (IGROV1 ovarian) of the same compound?
**A.** 21.4 µM

**Q.** And the GI50 (HS 578T breast)?
**A.** 0.496 µM

**Q.** And the TGI (HS 578T breast)?
**A.** 34.9 µM

**Q.** What about the GI50 (SR leukemia) of the same compound?
**A.** 0.29 µM

**Q.** What about the TGI (SR leukemia) of the same compound?
**A.** 27.6 µM

**Q.** What about the GI50 (A498 renal) of the same compound?
**A.** 28.3 µM

**Q.** What about the TGI (A498 renal) of the same compound?
**A.** > 100 µM

**Q.** And the GI50 (OVCAR-5 ovarian)?
**A.** 0.424 µM

**Q.** And the TGI (OVCAR-5 ovarian)?
**A.** > 100 µM

**Q.** What about the GI50 (A549 NSCLC) of the same compound?
**A.** 0.376 µM

**Q.** What about the TGI (A549 NSCLC) of the same compound?
**A.** > 48.2 µM

**Q.** What about the GI50 (786-0 renal) of the same compound?
**A.** 0.418 µM

**Q.** And the TGI (786-0 renal)?
**A.** > 41.5 µM

**Q.** What about the GI50 (RPMI-8226 leukemia) of the same compound?
**A.** 0.356 µM

**Q.** And the TGI (RPMI-8226 leukemia)?
**A.** > 52.5 µM

**Q.** What about the GI50 (SNB-19 CNS) of the same compound?
**A.** 0.331 µM

**Q.** What about the TGI (SNB-19 CNS) of the same compound?
**A.** > 90.2 µM

**Q.** And the GI50 (HCT-116 colon)?
**A.** 0.231 µM

**Q.** And the TGI (HCT-116 colon)?
**A.** 7.06 µM

**Q.** And the GI50 (SK-MEL-2 melanoma)?
**A.** 0.325 µM

**Q.** And the TGI (SK-MEL-2 melanoma)?
**A.** 21 µM

**Q.** And the GI50 (MDA-MB-231 breast)?
**A.** 0.29 µM

**Q.** And the TGI (MDA-MB-231 breast)?
**A.** 3.09 µM

**Q.** And the GI50 (SF-539 CNS)?
**A.** 0.122 µM

**Q.** What about the TGI (SF-539 CNS) of the same compound?
**A.** 0.429 µM

**Q.** What about the GI50 (MOLT-4 leukemia) of the same compound?
**A.** 0.33 µM

**Q.** And the TGI (MOLT-4 leukemia)?
**A.** > 21.4 µM

**Q.** And the GI50 (ACHN renal)?
**A.** 0.361 µM

**Q.** And the TGI (ACHN renal)?
**A.** > 61.5 µM

**Q.** What about the GI50 (OVCAR-4 ovarian) of the same compound?
**A.** 0.594 µM

**Q.** What about the TGI (OVCAR-4 ovarian) of the same compound?
**A.** 69.8 µM

**Q.** What about the GI50 (PC-3 prostate) of the same compound?
**A.** 0.45 µM

**Q.** What about the TGI (PC-3 prostate) of the same compound?
**A.** > 100 µM

**Q.** And the GI50 (SF-295 CNS)?
**A.** 0.275 µM

**Q.** And the TGI (SF-295 CNS)?
**A.** 3.22 µM

**Q.** What about the GI50 (K-562 leukemia) of the same compound?
**A.** 0.235 µM

**Q.** And the TGI (K-562 leukemia)?
**A.** > 73.8 µM

**Q.** And the GI50 (NCI-H23 lung)?
**A.** 0.426 µM

**Q.** What about the TGI (NCI-H23 lung) of the same compound?
**A.** 38.8 µM

**Q.** And the GI50 (SF-268 CNS)?
**A.** 0.574 µM

**Q.** What about the TGI (SF-268 CNS) of the same compound?
**A.** > 100 µM

**Q.** What about the GI50 (OVCAR-3 ovarian) of the same compound?
**A.** 0.321 µM

**Q.** What about the TGI (OVCAR-3 ovarian) of the same compound?
**A.** 4.18 µM

**Q.** What about the GI50 (RXF 393 renal) of the same compound?
**A.** 0.547 µM

**Q.** And the TGI (RXF 393 renal)?
**A.** 5.01 µM

**Q.** What about the GI50 (MDA-MB-435) of the same compound?
**A.** 0.196 µM

**Q.** What about the TGI (MDA-MB-435) of the same compound?
**A.** 0.384 µM

**Q.** And the GI50 (NCI-H226 lung)?
**A.** 0.313 µM

**Q.** And the TGI (NCI-H226 lung)?
**A.** 6.93 µM

**Q.** And the GI50 (UACC-62 melanoma)?
**A.** 0.334 µM

**Q.** What about the TGI (UACC-62 melanoma) of the same compound?
**A.** 25.9 µM

**Q.** What about the GI50 (NCI-H522 lung) of the same compound?
**A.** 0.0719 µM

**Q.** What about the TGI (NCI-H522 lung) of the same compound?
**A.** 0.242 µM

**Q.** What about the GI50 (HOP-92 NSCLC) of the same compound?
**A.** 1.37 µM

**Q.** And the TGI (HOP-92 NSCLC)?
**A.** 68.3 µM

**Q.** And the GI50 (HT29 colon)?
**A.** 0.319 µM

**Q.** What about the TGI (HT29 colon) of the same compound?
**A.** 10.7 µM

**Q.** And the GI50 (HCC-2998 colon)?
**A.** 0.453 µM

**Q.** What about the TGI (HCC-2998 colon) of the same compound?
**A.** 46 µM

**Q.** What about the GI50 (SN12C renal) of the same compound?
**A.** 0.35 µM

**Q.** And the TGI (SN12C renal)?
**A.** 32.9 µM

**Q.** And the GI50 (SK-MEL-28 melanoma)?
**A.** 0.627 µM

**Q.** And the TGI (SK-MEL-28 melanoma)?
**A.** > 100 µM

**Q.** And the GI50 (KM12 colon)?
**A.** 0.402 µM

**Q.** What about the TGI (KM12 colon) of the same compound?
**A.** 27.9 µM

**Q.** What about the GI50 (MALME-3M melanoma) of the same compound?
**A.** 0.489 µM

**Q.** What about the TGI (MALME-3M melanoma) of the same compound?
**A.** > 74.4 µM

**Q.** What about the GI50 (HL-60(TB) leukemia) of the same compound?
**A.** 0.226 µM

**Q.** What about the TGI (HL-60(TB) leukemia) of the same compound?
**A.** 0.612 µM

**Q.** And the GI50 (SK-MEL-5 melanoma)?
**A.** 0.284 µM

**Q.** What about the TGI (SK-MEL-5 melanoma) of the same compound?
**A.** 0.878 µM

**Q.** What about the GI50 (UACC-257 melanoma) of the same compound?
**A.** 0.508 µM

**Q.** And the TGI (UACC-257 melanoma)?
**A.** > 100 µM

**Q.** What about the GI50 (HCT-15 colon) of the same compound?
**A.** 0.277 µM

**Q.** What about the GI50 (NCI-H460 lung) of the same compound?
**A.** 0.335 µM

**Q.** And the TGI (NCI-H460 lung)?
**A.** 3.27 µM

**Q.** And the GI50 (TK-10 renal)?
**A.** 4.19 µM

**Q.** What about the TGI (TK-10 renal) of the same compound?
**A.** > 100 µM

**Q.** What about the GI50 (BT-549 breast) of the same compound?
**A.** 0.274 µM

**Q.** What about the TGI (BT-549 breast) of the same compound?
**A.** 0.765 µM

**Q.** What about the GI50 (LOX IMVI melanoma) of the same compound?
**A.** 0.308 µM

**Q.** What about the TGI (LOX IMVI melanoma) of the same compound?
**A.** 1.35 µM

**Q.** And the GI50 (EKVX NSCLC)?
**A.** 1.18 µM

**Q.** And the TGI (EKVX NSCLC)?
**A.** > 100 µM

**Q.** And the GI50 (OVCAR-8 ovarian)?
**A.** 0.214 µM

**Q.** And the TGI (OVCAR-8 ovarian)?
**A.** 0.714 µM

**Q.** What about the GI50 (DU-145 prostate) of the same compound?
**A.** 0.346 µM

**Q.** What about the TGI (DU-145 prostate) of the same compound?
**A.** 34.1 µM

**Q.** What about the GI50 (CAKI-1 renal) of the same compound?
**A.** 0.45 µM

**Q.** And the TGI (CAKI-1 renal)?
**A.** 47 µM

**Q.** And the GI50 (T-47D breast)?
**A.** 2.31 µM

**Q.** What about the TGI (T-47D breast) of the same compound?
**A.** > 86.8 µM
